Each structure is given as a SMILES string.

From the METLIN SMRT retention time set (Domingo-Almenara et al. 2019) come the findings set out here.

This data set in a line: gradient 5% acetonitrile 3 min, to 50% in 2 min, to 85% in 15 min, held 3 min, 100 µL/min. To be noted: column: Zorbax Extend-C18 2.1 x 50 mm; eluents: water / acetonitrile, 0.1% formic acid. The gist of the method: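 Retention time was recorded from adduct peaks, which were picked computationally and each inspected manually. Pure standards ran in mixtures of ~100 molecules on HPLC coupled to a quadrupole time-of-flight mass spectrometer, in positive and negative ionization mode, through a Zorbax Extend-C18 column (2.1 × 50 mm, 1.8 μm) at 100 μL/min. Eluents were water and acetonitrile, each with 0.1% formic acid.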
Compound `CCOc1ccc(C2Cn3nnc(-c4nc(-c5ccncc5)no4)c3CO2)cc1` (centres undefined) gave an RP-LC retention time of 958 s.

`CC(C)Cc1csc(-c2csc(S(=O)(=O)NCc3ccc(Cl)cc3)c2)n1` yielded an RP-LC retention time of 1240 s.

As to `CCC(C)NC(=O)N1CCNC(=O)C1` (centres undefined), the RP-LC retention time amounted to 557 s.

As to `COc1ncccc1CN(C)C(=O)COc1ccccc1`, the RP-LC retention time is 568 s.

The compound `CCOc1ccc(Nc2c(C(=O)N3CCCCC3C)cnc3nc(C)ccc23)cc1` (centres undefined) yielded an RP-LC retention time of 668 s.

Take `O=C(NCc1nc(-c2ccc(NS(=O)(=O)c3ccc(F)cc3)cc2)no1)c1cccs1`: the RP-LC retention time is 867 s.

The compound `CCCNC(=O)c1cn(-c2ccc(NC(=O)C3CC3)cn2)cn1` yielded an RP-LC retention time of 655 s.

As to `CCc1noc([C@@H]2CC(F)(F)CN2C(=O)c2coc(C)n2)n1`, the RP-LC retention time came to 732 s.

The compound `Cc1cccc(C)c1NC(=O)Cn1cnc2c(sc3nc(-c4ccccc4)ccc32)c1=O` returned an RP-LC retention time of 972 s.

For `Cc1nnc(NC(=O)Cn2cnc(-c3cccs3)cc2=O)s1`, the RP-LC retention time is 630 s.

On to `Cc1ccc(-c2nc(-c3ccc(S(=O)(=O)N4CCCC4)cc3)no2)cc1F`, for which the RP-LC retention time amounted to 1260 s.

Take `CCCn1cc(C2=CCN(S(=O)(=O)c3cccc(C(F)(F)F)c3)CC2)c2cccnc21`: the RP-LC retention time turned out to be 1180 s.

Regarding `COc1ccccc1-c1noc(-c2nnn3c2COC(c2ccc(C)cc2C)C3)n1` (centres undefined), the RP-LC retention time amounted to 1250 s.

On to `CCCc1cc(N2CCN(C(=O)c3cc(OC)cc(OC)c3)CC2)nc2nncn12`, for which the RP-LC retention time amounted to 576 s.

`COc1ccc(OC)c(NC(=O)Cn2c(-c3ccc(Cl)cc3)nc(C)cc2=O)c1` came in with an RP-LC retention time of 1220 s.

Consider `CCOC(=O)c1c(C)[nH]c(C(=O)N2CCCC(C(=O)NCCN3CCCC3)C2)c1C` (centres undefined), for which the RP-LC retention time was 603 s.

Compound `COc1cccc2c1OC1(C)CC2C(S(=O)(=O)c2ccc(Cl)cc2)C(=O)N1` (centres undefined) registered an RP-LC retention time of 877 s.

Regarding `COc1ccc(-c2csc(NC(=O)CS(=O)(=O)c3ccc(C)cc3)n2)cc1OC`, the RP-LC retention time was found to be 893 s.

On to `COc1ccc(N2CCN(C(=O)[C@@H]3[C@H](c4cc(OC)c(OC)c(OC)c4)c4cc5c(cc4[C@H](O)[C@H]3CO)OCO5)CC2)cc1`, for which the RP-LC retention time came to 698 s.

For the compound `CCc1cc(=O)n(CC(=O)Nc2ccc(F)cc2C)c(N2CCOCC2)n1`, the RP-LC retention time was 760 s.

For the compound `Cc1cc(-c2c(C)sc(C)c2S(=O)(=O)Nc2cccc(Br)c2)n[nH]1`, the RP-LC retention time came to 1100 s.

Turning to `O=C(NC1CCN(c2cc(-c3cccs3)[nH]n2)C1)c1cccc(Br)c1` (centres undefined), the RP-LC retention time was found to be 796 s.

`COc1ccc(NC(=O)Cn2cccc2-c2nnc(C3CCC3)o2)cc1`: the RP-LC retention time was 850 s.

In turn, `Cc1ccc(-c2nc(-c3cccc(-c4ccn[nH]4)c3)no2)cc1F` returned an RP-LC retention time of 915 s.

Regarding `COc1ccccc1CCNC(=O)C1CN(C(=O)c2ccc(F)c(F)c2)C1`, the RP-LC retention time worked out at 731 s.

For `COc1ccc(-c2cn3ccn(-c4cccc(F)c4)c(=O)c3n2)cc1OC`, the RP-LC retention time came to 746 s.

For `O=C(NCc1ccccc1)c1nnc(-c2ccc(S(=O)(=O)N3CCOCC3)cc2)o1`, the RP-LC retention time is 816 s.

As for `Cc1ccccc1NC(=O)Nc1c(-c2ccccc2)nc2ccccn12`, the RP-LC retention time is 661 s.

As for `CCNC(=O)c1cc(-c2ccccc2)n[nH]1`, the RP-LC retention time worked out at 668 s.

For the compound `COC(=O)c1cccc(C(=O)Nc2cccc(Cl)c2C)n1`, the RP-LC retention time was found to be 976 s.

The compound `Cc1[nH]c2ccc(-c3nnc(SCC(=O)NCCc4nc5ccccc5[nH]4)o3)cc2c1C` yielded an RP-LC retention time of 667 s.

As to `Cc1cccc(-n2c(=O)c3sccc3n(Cc3nc(-c4ccccc4)no3)c2=O)c1`, the RP-LC retention time was 1010 s.

Compound `CC1Sc2ccc(S(=O)(=O)N3CCC(C(=O)N4CCc5ccccc5C4)CC3)cc2NC1=O` (centres undefined) showed an RP-LC retention time of 882 s.

The compound `COc1ccc(OCc2nc(-c3ccc4oc(C)nc4c3)no2)cc1` had an RP-LC retention time of 984 s.

Turning to `CCOC(=O)C1CCN(c2ccc3nnc(CCc4nc(-c5ccc(F)cc5)no4)n3n2)CC1`, the RP-LC retention time amounted to 966 s.

`CCC1=C(c2ccc(C)cc2)S(=O)(=O)N=C1N1CCC(C(=O)N2CCOCC2)CC1` gave an RP-LC retention time of 780 s.

Turning to `Cc1ccc(C)c(NC(=O)NCCn2nnc3cc(C(=O)N(C)C)ccc32)c1`, the RP-LC retention time stood at 664 s.

As for `Cc1nn(-c2ccc(C(=O)NCCCN3CCCC3=O)cc2)c2c1C(=O)CC(C)(C)C2`, the RP-LC retention time stood at 670 s.

As to `O=C(Nc1cc(F)ccc1F)N1CCCC1c1nncn1-c1ccccc1` (centres undefined), the RP-LC retention time was 717 s.

Compound `COc1cc(-c2nc3ccc(C)cn3c2Nc2ccc(Cl)cc2)ccc1O` gave an RP-LC retention time of 698 s.

`CC(C)n1cnc(S(=O)(=O)N2CCC(C(=O)NCc3ccc(F)cc3)CC2)c1` displayed an RP-LC retention time of 721 s.

`O=C(Nc1ccccc1)N1CC(c2nc(CCOCC3CCCC3)no2)C1` showed an RP-LC retention time of 944 s.

In turn, `O=C(Nc1cccc(Cl)c1)c1cn(CC(O)c2ccc3c(c2)OCO3)nn1` (centres undefined) had an RP-LC retention time of 863 s.

`CCC(CC)C(=O)Oc1coc(CSc2nc(C)cs2)cc1=O` came in with an RP-LC retention time of 882 s.

As for `O=S(=O)(c1ccc(-c2noc(COc3ccc(Cl)cc3)n2)cc1)N1CCCC1`, the RP-LC retention time was found to be 1170 s.

The compound `COc1ccc(C(=O)N2CCC(c3cc(N)on3)CC2)cc1OC` registered an RP-LC retention time of 615 s.

Regarding `COc1ccccc1C(=O)N1C[C@H](c2nc(-c3ccncc3)no2)[C@@H](C)C1`, the RP-LC retention time was found to be 737 s.

As for `COc1ccc(C(=O)N2CCC(c3noc(-c4ccncc4)n3)C2)cn1` (centres undefined), the RP-LC retention time worked out at 673 s.

In turn, `Cn1ncc2c3ccccc3n(CCCC(=O)N3CCN(Cc4ccccc4)CC3)c2c1=O` displayed an RP-LC retention time of 646 s.

The compound `CCc1onc(C)c1C1CCCN1C(=O)Nc1ccc(OC)cc1OC` (centres undefined) registered an RP-LC retention time of 796 s.

As to `CNCCCNCc1ccc(-c2ccc(F)c(Cl)c2)o1`, the RP-LC retention time was determined as 580 s.

Consider `O=C(NCCc1csc(-c2cccs2)n1)C1CCN(S(=O)(=O)c2cccs2)CC1`, for which the RP-LC retention time worked out at 852 s.

In the case of `Cc1noc([C@@H]2CN(Cc3cn[nH]c3-c3ccccc3)C[C@H]2CO)n1`, the RP-LC retention time was determined as 582 s.

For `CC(=O)N1CCCSc2ccc(S(=O)(=O)N3CCCC(CN4CCc5ccccc5C4)C3)cc21` (centres undefined), the RP-LC retention time was determined as 687 s.

Regarding `CCOC(=O)CCNC(=O)N1CCC(CC2CC2)(NS(C)(=O)=O)CC1`, the RP-LC retention time came to 672 s.

For the compound `CCC(C(=O)Nc1c(-c2ccccc2)nc2cc(C)ccn12)c1ccccc1` (centres undefined), the RP-LC retention time was 939 s.

The compound `Cc1ccc(CN(C(=O)C(C)Oc2ccc(Cl)c(C)c2)C2CCS(=O)(=O)C2)o1` (centres undefined) yielded an RP-LC retention time of 1020 s.

`Cn1c(=O)n(-c2ccc(F)cc2)c2nc(-c3ccccc3Cl)nc(C(N)=O)c21` returned an RP-LC retention time of 912 s.

As for `Cc1cccc(-c2noc(CCn3nc(-c4ccccc4)ccc3=O)n2)c1`, the RP-LC retention time is 1020 s.

Regarding `CCn1cnc(S(=O)(=O)N2CCC(C(=O)Nc3cc(C)cc(C)c3)CC2)c1`, the RP-LC retention time is 797 s.

With `CCc1ccc(C2=C(C)C(N3CCCN(C(=O)C(C)C)CC3)=NS2(=O)=O)cc1`, the RP-LC retention time was 824 s.

With `Cc1ccc(-c2nc3ncccn3c2Nc2ccccc2C)cc1`, the RP-LC retention time was 802 s.

Take `CCc1sc(NC(=O)c2sc(C)nc2C)nc1-c1ccc(Br)cc1`: the RP-LC retention time turned out to be 1160 s.

For `c1ccc(-c2csc(Nc3ncccn3)n2)nc1`, the RP-LC retention time is 594 s.

In turn, `CC(C)n1c(=O)oc2cc(-c3noc(-c4cc(F)cc(F)c4)n3)ccc21` had an RP-LC retention time of 1220 s.

On to `Cc1cccc(-c2ncccc2CNS(=O)(=O)c2ccccc2Br)c1`, for which the RP-LC retention time came out at 731 s.

In turn, `COc1ccc(NC(=O)Cn2ncc3c(c2=O)N(CC2CC2)C(=O)CS3)cc1Cl` displayed an RP-LC retention time of 808 s.

On to `Cc1ccn2c(NC(=O)C(C)(C)Oc3ccc(Cl)cc3)c(-c3ccccc3)nc2c1`, for which the RP-LC retention time was 804 s.

In turn, `COc1ccc(-c2nc3ccc(Br)cn3c2Nc2ccc(C)cc2)cc1` had an RP-LC retention time of 847 s.

Regarding `O=C(Nc1nnc(SCc2cccc(F)c2)s1)C1CCCCC1`, the RP-LC retention time was 1010 s.

For `Cc1cc2n(n1)CCC(=O)N2CCCC(=O)N1CCOCC1`, the RP-LC retention time is 585 s.

Take `CCN1c2ccc(C)cc2C(=O)NC12CCN(C(=O)Cc1ccccc1)CC2`: the RP-LC retention time stood at 820 s.

For the compound `CCN1CCc2nc(-c3ccc(F)cc3)n(CC(=O)N3CCc4ccccc4C3)c(=O)c2C1`, the RP-LC retention time was 635 s.

In turn, `Cc1cc(C(=O)N2CCOCC2)n(CC(=O)NCc2ccco2)n1` gave an RP-LC retention time of 576 s.

Take `COc1ccc(-c2c(C)noc2NC(C)=O)cc1S(=O)(=O)Nc1ccccc1F`: the RP-LC retention time is 783 s.

As to `Cc1ccc(CNC(=O)C2CCN(c3cncnc3N3CCOCC3)CC2)o1`, the RP-LC retention time was 605 s.

The compound `CCc1nc2cc(-c3noc(C4(c5ccccc5)CC4)n3)ccc2o1` gave an RP-LC retention time of 1220 s.

`CC(=O)c1cccc(NC(=O)Cn2c(-c3cnccn3)nc(C)c(C)c2=O)c1` yielded an RP-LC retention time of 650 s.

Compound `CN(CCc1noc(COc2ccccc2F)n1)C(=O)NCCc1ccccc1` had an RP-LC retention time of 876 s.
